Patent publication US9084423B2, “Inhibition of bacterial biofilms with imidazole derivatives” (North Carolina State University, priority 2007, dated 2015)
Structures can show the parent of a compound that is named as a salt. Each block holds one molecule with its values, some of them ahead of it.

Legend:
P. aeruginosa = experiment: Biofilm inhibition screen of TABLE 1, P. aeruginosa; format: cell-based, Pseudomonas aeruginosa; design: key: “X” denotes biofilm inhibition; settings: 500 μM active compound, 24 hours
Procedure: (§1) Each compound was assayed for the ability to inhibit the formation of P. aeruginosa biofilms. […] We employed a standard crystal violet reporter assay to assess for the formation of biofilms. Briefly, P. aeruginosa strain PAO1 was allowed to form biofilms in a multi-well plate in the absence or presence of our compounds. Planktonic (or free growing) bacteria were then removed, wells washed vigorously, and crystal violet added. Crystal violet stains the remaining bacteria which, following ethanol solubilization, can be quantitated by spectrophotometry (A540).
(§2) Active compounds were tested for inhibition of biofilm formation using various bacterial strains. Assays were performed as reported above, with 500 μM active compound, and 24 hours. “X” denotes biofilm inhibition.

[1] = tested on: P. aeruginosa strain PAO1; experiment: Static biofilm inhibition assay (crystal violet), PAO1; format: cell-based, Pseudomonas aeruginosa; settings: for IC50: inhibition of biofilm formation, crystal violet, 24 hours
Procedure: as §1
(§3) An overnight culture of the bacterial strain being screened against was subcultured at an OD600 of 0.1 into the media used (listed below with strain) and then pipetted into test tubes along with a predetermined concentration of our compound of interest. Test tubes were then poured into tilted Petri dishes and 100 μL of media, strain and compound were then transferred into 96-well PVC microtiter plates. These microtiter plates were then covered, wrapped in Saran™ Wrap polyethylene film (S.C. Johnson, Racine, Wis.) and allowed to incubate at 37° C. for 24 hours. After that time, the medium was discarded and the plates were thoroughly washed with water. The remaining biofilm that was formed during incubation was stained with 100 μL of a 0.1% crystal violet solution and allowed to incubate at room temperature for 30 minutes. After 30 minutes, the crystal violet was discarded and washed thoroughly again with water. The remaining crystal violet that had stained the biofilm in the inside walls of the 96-well PVC plates was solubilized with 200 μL of 95% ethanol. The quantification of biofilm formation was accomplished by transferring 125 μL of the ethanol solution into a polystyrene microtiter dish, which was read by spectrophotometry (A540). After the background has been subtracted from each row, a percent inhibition can be calculated by dividing the amount of crystal violet in wells that contained compound by the amount of crystal violet in wells that contained bacteria only. Each concentration reported during the course of this study was repeated two to five times with each of those biofilm inhibition assays being done in 6 replicates each.
(§4) An overnight culture of the wild type strain was subcultured at an OD600 of 0.10 into LBNS along with a predetermined concentration of the small molecule to be tested for biofilm inhibition. Samples were then aliquoted (100 μL) into the wells of a 96-well PVC microtiter plate. The microtiter dishes were covered and sealed before incubation under stationary conditions at 37° C. for 24 hours. After that time, the medium was discarded and the plates thoroughly washed with water. The wells were then inoculated with a 0.1% aqueous solution of crystal violet (100 μL) and allowed to stand at ambient temperature for 30 minutes. Following another thorough washing with water the remaining stain was solubilized with 200 μL of 95% ethanol. Biofilm inhibition was quantitated by measuring the OD540 for each well by transferring 125 μL of the ethanol solution into a fresh polystyrene microtiter dish for analysis.
(§5) To examine each compound's ability to inhibit the formation of Pseudomonas aeruginosa biofilms, PAO1 and PA14 were employed as the target bacterial strains using a crystal violet reporter assay. G. A. O'Toole, R. Kolter, Mol. Microbiol. 1998, 28, 449. All compounds were initially screened at 500 μM for anti-biofilm activity.
An overnight culture of the wild type strain was subcultured at an OD600 of 0.10 into LBNS along with a predetermined concentration of the small molecule to be tested for biofilm inhibition. Samples were then aliquoted (100 μL) into the wells of a 96-well PVC microtiter plate. The microtiter dishes were covered and sealed before incubation under stationary conditions at 37° C. for 24 hours, After that time, the medium was discarded and the plates thoroughly washed with water. […]

P. aeruginosa PA14 = experiment: Static biofilm inhibition assay (crystal violet), PA14; format: cell-based, Pseudomonas aeruginosa; settings: for IC50: inhibition of biofilm formation, crystal violet, 24 hours; for inhibition at 500 µM: PA14, 24 h
Procedure: as §3, §4, §5
as §4, with “for 24 hours, After that” for “for 24 hours. After that”, “violet (100 pt) and allowed” for “violet (100 μL) and allowed”

[2] = tested on: planktonic P. aeruginosa PA14; experiment: Planktonic growth (growth curves, colony counts), PA14; format: cell-based, Pseudomonas aeruginosa; settings: growth curves and/or colony counts, presence vs absence of compound, at IC50 or as stated
[3] = tested on: planktonic P. aeruginosa PAO1; experiment: Planktonic growth (growth curves, colony counts), PAO1; format: cell-based, Pseudomonas aeruginosa; settings: growth curves and/or colony counts, presence vs absence of compound, at IC50 or as stated
Description: To answer the question of whether the compounds were antibiotics or true inhibitors of biofilm formation, we tested the ability of both compounds to inhibit growth of planktonic P. aeruginosa. Growth was quantitated by measuring optical density at 600 nm. […]

H. Pacifica = experiment: Biofilm inhibition screen of TABLE 1, H. pacifica; format: cell-based, Halomonas pacifica; design: key: “X” denotes biofilm inhibition; settings: 500 μM active compound, 24 hours
Procedure: as §1, §2

V. Vulnificus = experiment: Biofilm inhibition screen of TABLE 1, V. vulnificus; format: cell-based, Vibrio vulnificus; design: key: “X” denotes biofilm inhibition; settings: 500 μM active compound, 24 hours
Procedure: as §1, §2

pre-formed PA14 biofilms = experiment: Static biofilm dispersion assay, PA14; format: cell-based; settings: Pseudomonas aeruginosa, 24-hour pre-formed biofilm, 24 hours treatment
Procedure: (§6) One aspect associated with small molecule modulation of biofilm development is the ability to disperse a pre-formed biofilm. There have only been a limited number of examples in the literature of molecules that disperse bacterial biofilms. Banin et al., Appl. Environ. Microbiol., 2006, 72, 2064. L. M. Junker and J. Clardy, Antimicrob, Agents Ch., 2007, 51, 3582. Boles et al., Mol. Microbiol., 2005, 57, 1210. TAGE was assayed for its ability to disperse pre-formed PAO1 and PA14 biofilms. Each bacterial strain was allowed to form biofilms in a microtiter well for 24 hours in the absence of compound. […] After 24 hours, all the wells were washed vigorously to remove media and planktonic bacteria, and then were stained with crystal violet to quantify the amount of remaining biofilm Representative PAO1 results are depicted in FIG. 6.
(§7) An overnight culture of either PAO1 or PA14 was subcultured at an OD600 of 0.5 into LBNS and aliquoted (100 μL) into the wells of a 96-well PVC microtiter plate. […] The quantification of remaining biofilm was accomplished by transferring 125 μL of the ethanol solution into a polystyrene microtiter dish, which was read by spectrophotometry (A540). Percent dispersion was calculated in the same manner as percent biofilm inhibition described previously in this experimental section. […]

pre-formed PAO1 biofilms = experiment: Static biofilm dispersion assay, PAO1; format: cell-based; settings: Pseudomonas aeruginosa, 24-hour pre-formed biofilm, 24 hours treatment
Procedure: as §6, §7

[4] = listed as sventrin 24, Hydrochloride
[5] = listed as sventrin (6), Hydrochloride
[6] = listed as oroidin 4, Hydrochloride
[7] = listed as oroidin 5, Hydrochloride
[8] = listed as oroidin (5), Hydrochloride

Structure (SMILES): NC[C@@H]1Cc2nc(N)[nH]c2C[C@@H]1CN
- P. aeruginosa biofilm inhibition (P. aeruginosa): X

- IC50 [1]: 75 ± 5 µM
- IC50 (P. aeruginosa PA14): 115 ± 3 µM
Structure (SMILES): Cn1c(C(=O)NC/C=C/c2cnc(N)[nH]2)cc(Br)c1Br [sventrin, Sventrin Hydrochloride, reference compound]
- microbicidal effect on PA14 planktonic growth (in words) [2, 4]: did not induce microbial cell death
- microbicidal effect on PA14 planktonic growth (in words) [2, 5]: not due to a bactericidal effect
- microbicidal effect on PAO1 planktonic growth (in words) [3, 4]: did not induce microbial cell death
- microbicidal effect on PAO1 planktonic growth (in words) [3, 5]: not due to a bactericidal effect

- IC50 ([1]; Pseudomonas aeruginosa, PAO1): 190 µM
- IC50 (P. aeruginosa PA14; Pseudomonas aeruginosa, PA14): 166 µM
Structure (SMILES): Nc1ncc(/C=C/CNC(=O)c2cc(Br)c(Br)[nH]2)[nH]1 [oroidin, Oroidin Hydrochloride, reference compound]
- inhibition at 500 µM ([1]; Pseudomonas aeruginosa, PAO1): > 95%
- inhibition of PAO1 biofilm formation (in words) ([1]; screen at 500 μM): very potent inhibitors
- inhibition at 500 µM (P. aeruginosa PA14; Pseudomonas aeruginosa): > 95%
- inhibition of PA14 biofilm formation (in words) (P. aeruginosa PA14; screen at 500 μM): very potent inhibitors
- microbicidal effect on PA14 planktonic growth (in words) [2, 6]: remained unchanged
- microbicidal effect on PA14 planktonic growth (in words) [2, 7]: did not induce microbial cell death
- microbicidal effect on PA14 planktonic growth (in words) [2, 8]: not due to a bactericidal effect
- microbicidal effect on PAO1 planktonic growth (in words) [3, 6]: remained unchanged
- microbicidal effect on PAO1 planktonic growth (in words) [3, 7]: did not induce microbial cell death
- microbicidal effect on PAO1 planktonic growth (in words) [3, 8]: not due to a bactericidal effect

Structure (SMILES): NC1=N/C(=C\CCNC(=O)c2cc(Br)c(Br)[nH]2)C(=O)N1
- H. Pacifica biofilm inhibition (H. Pacifica): X

Structure (SMILES): Nc1ncc2n1CCC2
- V. Vulnificus biofilm inhibition (V. Vulnificus): X

Structure (SMILES): Nc1nc(Cc2c[nH]cn2)c[nH]1
- H. Pacifica biofilm inhibition (H. Pacifica): X
- V. Vulnificus biofilm inhibition (V. Vulnificus): X

Structure (SMILES): NC[C@H]1Cc2nc(N)[nH]c2C[C@@H]1CN
- H. Pacifica biofilm inhibition (H. Pacifica): X
- V. Vulnificus biofilm inhibition (V. Vulnificus): X
- P. aeruginosa biofilm inhibition (P. aeruginosa): X

Structure (SMILES): Nc1nc(CCCNC(=O)c2cc(Br)c[nH]2)c[nH]1 [drawing 73]
- H. Pacifica biofilm inhibition (H. Pacifica): X
- P. aeruginosa biofilm inhibition (P. aeruginosa): X

- IC50 ([1]; Pseudomonas aeruginosa, PAO1): 150 ± 17 µM
- IC50 (P. aeruginosa PA14; Pseudomonas aeruginosa, PA14): 126 ± 17 µM
Structure (SMILES): Cl.Cn1c(C(=O)NCCCCc2c[nH]c(N)n2)cc(Br)c1Br [Compound 30, 4,5-dibromo-1-methyl-pyrrole-2-carboxylic acid [4-(2-amino-1H-imidazol-4-yl)-butyl]-amide hydrochloride]
- inhibition at 500 µM ([1]; Pseudomonas aeruginosa, PAO1): > 95%
- inhibition at 500 µM (P. aeruginosa PA14; Pseudomonas aeruginosa): > 95%
- microbicidal effect on PA14 planktonic growth (in words) [2]: no microbicidal activity
- microbicidal effect on PAO1 planktonic growth (in words) [3]: no microbicidal activity

- EC50 (pre-formed PA14 biofilms): 21.3 ± 3.9 µM
- IC50 ([1]; Pseudomonas aeruginosa, PAO1): 2.84 µM
- EC50 (pre-formed PAO1 biofilms): 32.8 ± 4.7 µM
- IC50 (P. aeruginosa PA14; Pseudomonas aeruginosa, PA14): 2.26 µM
Structure (SMILES): CCCCCCCCCCCCNC(=O)CCCc1c[nH]c(N)n1.Cl [Compound 12, 4-(2-amino-1H-imidazol-4-yl)-N-dodecyl-butyramide hydrochloride]
- microbicidal effect on PA14 planktonic growth (in words) [2]: remained unchanged
- microbicidal effect on PAO1 planktonic growth (in words) [3]: remained unchanged

- IC50 ([1]; Pseudomonas aeruginosa, PAO1): 165 ± 23 µM
- IC50 (P. aeruginosa PA14; Pseudomonas aeruginosa, PA14): 224 ± 22 µM
Structure (SMILES): Cl.Cn1c(C(=O)NCCc2c[nH]c(N)n2)cc(Br)c1Br [Compound 27, 4,5-dibromo-1-methyl-pyrrole-2-carboxylic acid [2-(2-amino-1H-imidazol-4-yl)-ethyl]-amide hydrochloride]
- inhibition at 500 µM ([1]; Pseudomonas aeruginosa, PAO1): > 95%
- inhibition at 500 µM (P. aeruginosa PA14; Pseudomonas aeruginosa): > 95%
- microbicidal effect on PA14 planktonic growth (in words) [2]: no microbicidal activity
- microbicidal effect on PAO1 planktonic growth (in words) [3]: no microbicidal activity

Structure (SMILES): Nc1nc(CCCNC(=O)c2cc(Br)c(Br)[nH]2)c[nH]1 [drawing 74]
- H. Pacifica biofilm inhibition (H. Pacifica): X

Structure (SMILES): Nc1nc(Cc2c[nH]c3ccccc23)c[nH]1
- H. Pacifica biofilm inhibition (H. Pacifica): X
- P. aeruginosa biofilm inhibition (P. aeruginosa): X

Structure (SMILES): Nc1nc(/C=C/CNC(=O)c2cc(Br)c(Br)[nH]2)c[nH]1
- H. Pacifica biofilm inhibition (H. Pacifica): X
